Results: ChEMBL document CHEMBL1201861, “Genomics of Drug Sensitity in Cancer screening data, Wellcome Trust Sanger Institute”

Tests used:
Assay in all cases: cells
CTB-1 = format: functional, cell-based, Homo sapiens; settings: Homo sapiens, CTB-1
DEL = format: functional, cell-based, Homo sapiens; settings: Homo sapiens, DEL;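 also: growth inhibition of the human DEL cell line, read out with a cell viability assay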
EFO-27 = format: functional, cell-based; settings: Homo sapiens;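 also: growth inhibition of EFO-27 cells, read out with a cell viability assay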
EW-1 = format: functional, cell-based, Homo sapiens; settings: Homo sapiens, EW-1
EW-11 = format: functional, cell-based, Homo sapiens; settings: Homo sapiens, EW-11;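 also: growth inhibition of human EW-11 cells, measured with a cell viability assay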
GAK = format: functional, cell-based, Homo sapiens; settings: Homo sapiens, GAK;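 also: cell growth inhibition read out by a cell viability assay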
HEL = format: functional, cell-based, Homo sapiens; settings: Homo sapiens, HEL;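 also: growth inhibition of HEL cells, read out with a cell viability assay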
HH = format: functional, cell-based, Homo sapiens; settings: Homo sapiens, HH
IST-MES1 = format: functional, cell-based, Homo sapiens; settings: Homo sapiens, IST-MES1;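 also: growth inhibition of IST-MES1 cells, measured with a cell viability assay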
K562 = format: functional, cell-based, Homo sapiens; settings: Homo sapiens, K562
KLE = format: functional, cell-based; settings: Homo sapiens;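 also: growth inhibition of human KLE cells, read out with a cell viability assay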
L-428 = format: functional, cell-based, Homo sapiens; settings: Homo sapiens, L-428
LB1047-RCC = format: functional, cell-based, Homo sapiens; settings: Homo sapiens, LB1047-RCC;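 also: inhibition of cell growth, determined with a cell viability assay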
LB996-RCC = format: functional, cell-based, Homo sapiens; settings: Homo sapiens, LB996-RCC
LS-411N = format: functional, cell-based, Homo sapiens; settings: Homo sapiens, LS-411N
MHH-NB-11 = format: functional, cell-based, Homo sapiens; settings: Homo sapiens, MHH-NB-11;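 also: growth inhibition of human MHH-NB-11 cells, read out by a cell viability assay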
MPP-89 = format: functional, cell-based, Homo sapiens; settings: Homo sapiens, MPP-89;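 also: growth inhibition of human MPP-89 cells, read out with a cell viability assay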
MSTO-211H = format: functional, cell-based, Homo sapiens; settings: Homo sapiens, MSTO-211H
NB5 = format: functional, cell-based, Homo sapiens; settings: Homo sapiens, NB5;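 also: growth inhibition of NB5 cells, read out as cell viability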
NCI-H1299 = format: functional, cell-based; settings: Homo sapiens;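 also: growth inhibition of human NCI-H1299 cells, read out by a cell viability assay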
NCI-H1304 = format: functional, cell-based, Homo sapiens; settings: Homo sapiens, NCI-H1304;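 also: growth inhibition of the cancer cell line, measured in a cell viability assay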
NCI-H1355 = format: functional, cell-based, Homo sapiens; settings: Homo sapiens, NCI-H1355;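 also: growth inhibition of human NCI-H1355 cells, read out by a cell viability assay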
NCI-H1581 = format: functional, cell-based, Homo sapiens; settings: Homo sapiens, NCI-H1581;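 also: cell growth inhibition read out by a viability assay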
NCI-H209 = format: functional, cell-based, Homo sapiens; settings: Homo sapiens, NCI-H209;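 also: growth inhibition of human NCI-H209 cells, measured by a cell viability assay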
NCI-N87 = format: functional, cell-based; settings: Homo sapiens;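 also: growth inhibition of human NCI-N87 cells, read out with a cell viability assay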
NEC8 = format: functional, cell-based, Homo sapiens; settings: Homo sapiens, NEC8;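 also: growth inhibition of human NEC8 cells, read out by a cell viability assay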
NH-12 = format: functional, cell-based, Homo sapiens; settings: Homo sapiens, NH-12;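 also: growth inhibition of NH-12 cells, read out with a cell viability assay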
OAW-42 = format: functional, cell-based; settings: Homo sapiens;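 also: growth inhibition of OAW-42 cells, read out with a cell viability assay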
OCUB-M = format: functional, cell-based; settings: Homo sapiens;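 also: growth inhibition of the cancer cell line, read out through a cell viability assay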
RKO = format: functional, cell-based, Homo sapiens; settings: Homo sapiens, RKO;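 also: growth inhibition of human RKO cells, read out with a cell viability assay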
RPMI-8866 = format: functional, cell-based, Homo sapiens; settings: Homo sapiens, RPMI-8866
RS4-11 = format: functional, cell-based, Homo sapiens; settings: Homo sapiens, RS4-11;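 also: growth inhibition of RS4-11 cells, read out by a cell viability assay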
Ramos-2G6-4C10 = format: functional, cell-based, Homo sapiens; settings: Homo sapiens, Ramos-2G6-4C10;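 also: growth inhibition of the cell line, measured by a cell viability read-out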
SHP77 = format: functional, cell-based, Homo sapiens, SHP-77; settings: Homo sapiens, SHP77;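 also: growth inhibition of human SHP-77 cells measured by a cell viability assay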
SK-MEL-1 = format: functional, cell-based, Homo sapiens; settings: Homo sapiens, SK-MEL-1;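 also: growth inhibition of human SK-MEL-1 cells, read out by a cell viability assay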
SW 962 = format: functional, cell-based, Homo sapiens; settings: Homo sapiens, SW 962;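 also: growth inhibition of human SW962 cells, read out by a cell viability assay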
A253 cell line = format: functional, cell-based, Homo sapiens; settings: Homo sapiens, A253;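 also: growth inhibition of A253 cells, read out with a cell viability assay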
A388 = format: functional, cell-based; settings: Homo sapiens;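 also: growth inhibition of human A388 cells, read out with a cell viability assay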
A498 = format: functional, cell-based, Homo sapiens; settings: Homo sapiens, A498;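 also: growth inhibition of human A498 cells, read out with a cell viability assay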
ALL-PO = format: functional, cell-based, Homo sapiens; settings: Homo sapiens, ALL-PO;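 also: growth inhibition of ALL-PO cells, read out by a cell viability assay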
ATN-1 = format: functional, cell-based, Homo sapiens; settings: Homo sapiens, ATN-1;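 also: growth inhibition of human ATN-1 cells, read out with a cell viability assay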
BB49-HNC = format: functional, cell-based, Homo sapiens; settings: Homo sapiens, BB49-HNC;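 also: cell viability assay read-out, reported as inhibition of BB49-HNC cell growth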
BPH-1 = format: functional, cell-based; settings: Homo sapiens;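 also: cell viability assay measuring growth inhibition of human BPH-1 cells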
Becker = format: functional, cell-based, Homo sapiens; settings: Homo sapiens, Becker;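 also: growth inhibition of Becker cells, read out with a cell viability assay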
C8166 = format: functional, cell-based, Homo sapiens; settings: Homo sapiens, C8166;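 also: growth inhibition of human C8166 cells measured by a cell viability assay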
TGBC24TKB = format: functional, cell-based; settings: Homo sapiens;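 also: growth inhibition of human TGBC24TKB cells, read out with a cell viability assay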
TGW = format: functional, cell-based, Homo sapiens; settings: Homo sapiens, TGW;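 also: growth inhibition of human TGW cells, read out with a cell viability assay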
UACC-257 = format: functional, cell-based, Homo sapiens; settings: Homo sapiens, UACC-257
no-10 = format: functional, cell-based, Homo sapiens; settings: Homo sapiens;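 also: growth inhibition of no-10 cells, read out with a cell viability assay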
COLO-320-HSR = format: functional, cell-based, Homo sapiens; settings: Homo sapiens, COLO-320-HSR;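 also: growth inhibition of COLO-320-HSR cells, determined with a cell viability assay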
COLO-668 = format: functional, cell-based, Homo sapiens; settings: Homo sapiens, COLO-668

Cc1ccc(-n2nc(C(C)(C)C)cc2NC(=O)Nc2ccc(OCCN3CCOCC3)c3ccccc23)cc1 [DORAMAPIMOD]
IC50 (CTB-1): > 10 µM | IC50 (DEL): > 10 µM | IC50 (EFO-27): > 10 µM | IC50 (EW-1): > 10 µM | IC50 (EW-11): > 10 µM | IC50 (GAK): […] | IC50 (HEL): > 10 µM | IC50 (HH): > 10 µM | IC50 (IST-MES1): 7.96 µM | IC50 (K562): > 10 µM | IC50 (KLE): > 10 µM | IC50 (L-428): > 10 µM | IC50 (LB1047-RCC): > 10 µM | IC50 (LB996-RCC): > 10 µM | IC50 (LS-411N): > 10 µM | IC50 (MHH-NB-11): > 10 µM | IC50 (MPP-89): 8.46 µM | IC50 (MSTO-211H): > 10 µM | IC50 (NB5): > 10 µM | IC50 (NCI-H1299): > 10 µM | IC50 (NCI-H1304): > 10 µM | IC50 (NCI-H1355): > 10 µM | IC50 (NCI-H1581): > 10 µM | IC50 (NCI-H209): > 10 µM | IC50 (NCI-N87): > 10 µM | IC50 (NEC8): > 10 µM | IC50 (NH-12): > 10 µM | IC50 (OAW-42): > 10 µM | IC50 (OCUB-M): > 10 µM | IC50 (RKO): > 10 µM | IC50 (RPMI-8866): > 10 µM | IC50 (RS4-11): > 10 µM | IC50 (Ramos-2G6-4C10): > 10 µM | IC50 (SHP77): > 10 µM | IC50 (SK-MEL-1): > 10 µM | IC50 (SW 962): > 10 µM | IC50 (A253 cell line): > 10 µM | IC50 (A388): > 10 µM | IC50 (A498): > 10 µM | IC50 (ALL-PO): > 10 µM | IC50 (ATN-1): > 10 µM | IC50 (BB49-HNC): > 10 µM | IC50 (BPH-1): > 10 µM | IC50 (Becker): > 10 µM | IC50 (C8166): > 10 µM | IC50 (TGBC24TKB): > 10 µM | IC50 (TGW): > 10 µM | IC50 (UACC-257): > 10 µM | IC50 (no-10): > 10 µM | IC50 (COLO-320-HSR): > 10 µM | IC50 (COLO-668): > 10 µM

CCCCCCCCCCCC1=C(O)C(=O)C=C(O)C1=O [EMBELIN]
IC50 (CTB-1): 28 µM | IC50 (DEL): 10.4 µM | IC50 (EFO-27): > 32 µM | IC50 (EW-1): 28.6 µM | IC50 (EW-11): > 32 µM | IC50 (GAK): 11.7 µM | IC50 (HEL): 11.2 µM | IC50 (HH): > 32 µM | IC50 (IST-MES1): > 32 µM | IC50 (K562): 31.7 µM | IC50 (KLE): 24 µM | IC50 (L-428): 5.39 µM | IC50 (LB1047-RCC): 5.8 µM | IC50 (LB996-RCC): 14.1 µM | IC50 (LS-411N): 7.49 µM | IC50 (MHH-NB-11): > 32 µM | IC50 (MPP-89): 25.1 µM | IC50 (MSTO-211H): > 32 µM | IC50 (NB5): 22.4 µM | IC50 (NCI-H1299): > 32 µM | IC50 (NCI-H1304): > 32 µM | IC50 (NCI-H1355): 10.1 µM | IC50 (NCI-H1581): > 32 µM | IC50 (NCI-H209): > 32 µM | IC50 (NCI-N87): > 32 µM | IC50 (NEC8): 6.89 µM | IC50 (NH-12): 3.88 µM | IC50 (OAW-42): > 32 µM | IC50 (OCUB-M): 5.32 µM | IC50 (RKO): 2.01 µM | IC50 (RPMI-8866): 8.1 µM | IC50 (RS4-11): 10.5 µM | IC50 (Ramos-2G6-4C10): 17 µM | IC50 (SHP77): > 32 µM | IC50 (SK-MEL-1): > 32 µM | IC50 (SW 962): 7.77 µM | IC50 (A253 cell line): 7.75 µM | IC50 (A388): 6.7 µM | IC50 (A498): > 32 µM | IC50 (ALL-PO): 3.65 µM | IC50 (ATN-1): > 32 µM | IC50 (BB49-HNC): > 32 µM | IC50 (BPH-1): > 32 µM | IC50 (Becker): 15.8 µM | IC50 (C8166): 7.64 µM | IC50 (TGBC24TKB): 26.5 µM | IC50 (TGW): > 32 µM | IC50 (UACC-257): > 32 µM | IC50 (no-10): 13.9 µM | IC50 (COLO-320-HSR): 17.1 µM | IC50 (COLO-668): > 32 µM

NC1(c2ccc(-c3nc4ccn5c(=O)[nH]nc5c4cc3-c3ccccc3)cc2)CCC1 [MK-2206]
IC50 (CTB-1): 1.29 µM | IC50 (DEL): > 4 µM | IC50 (EFO-27): > 4 µM | IC50 (EW-1): > 4 µM | IC50 (EW-11): > 4 µM | IC50 (GAK): > 4 µM | IC50 (HEL): > 4 µM | IC50 (HH): 0.303 µM | IC50 (IST-MES1): > 4 µM | IC50 (K562): > 4 µM | IC50 (KLE): > 4 µM | IC50 (L-428): > 4 µM | IC50 (LB1047-RCC): 2.24 µM | IC50 (LB996-RCC): > 4 µM | IC50 (LS-411N): > 4 µM | IC50 (MHH-NB-11): > 4 µM | IC50 (MPP-89): > 4 µM | IC50 (MSTO-211H): > 4 µM | IC50 (NB5): > 4 µM | IC50 (NCI-H1299): > 4 µM | IC50 (NCI-H1304): > 4 µM | IC50 (NCI-H1355): > 4 µM | IC50 (NCI-H1581): > 4 µM | IC50 (NCI-H209): > 4 µM | IC50 (NCI-N87): > 4 µM | IC50 (NEC8): 0.0965 µM | IC50 (NH-12): > 4 µM | IC50 (OAW-42): 0.887 µM | IC50 (OCUB-M): 0.71 µM | IC50 (RKO): 1.87 µM | IC50 (RPMI-8866): > 4 µM | IC50 (RS4-11): 0.346 µM | IC50 (Ramos-2G6-4C10): 1.34 µM | IC50 (SHP77): > 4 µM | IC50 (SK-MEL-1): > 4 µM | IC50 (SW 962): > 4 µM | IC50 (A253 cell line): > 4 µM | IC50 (A388): > 4 µM | IC50 (A498): > 4 µM | IC50 (ALL-PO): > 4 µM | IC50 (ATN-1): > 4 µM | IC50 (BB49-HNC): > 4 µM | IC50 (BPH-1): > 4 µM | IC50 (Becker): > 4 µM | IC50 (C8166): > 4 µM | IC50 (TGBC24TKB): > 4 µM | IC50 (TGW): > 4 µM | IC50 (UACC-257): > 4 µM | IC50 (no-10): > 4 µM | IC50 (COLO-320-HSR): > 4 µM | IC50 (COLO-668): > 4 µM
